Test results: patent publication US8148367B2 (Takeda Pharmaceutical Company Limited, priority 2008, dated 2012)

Molecular target: T1, Recombinant human renin (Homo sapiens, UniProt P00797)
T1 construct: isolate the active form (residues 67-406); made in house; host or cells: FreeStyle 293-F cells, transient expression of pcDNA3.1(+)/hREN
T1 sequence (P00797 67-406): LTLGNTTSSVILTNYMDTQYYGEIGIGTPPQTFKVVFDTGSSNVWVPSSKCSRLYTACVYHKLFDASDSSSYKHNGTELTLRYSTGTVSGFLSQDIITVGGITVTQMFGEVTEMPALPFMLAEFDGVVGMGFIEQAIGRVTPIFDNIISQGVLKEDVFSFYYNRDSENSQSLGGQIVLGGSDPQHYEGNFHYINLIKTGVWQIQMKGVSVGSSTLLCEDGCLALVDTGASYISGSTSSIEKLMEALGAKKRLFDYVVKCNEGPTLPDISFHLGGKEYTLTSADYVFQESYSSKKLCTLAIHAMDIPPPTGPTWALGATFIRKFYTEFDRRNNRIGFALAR
Test: In vitro enzymatic activity assay of renin inhibitors (fluorescence, QXL520/HiLyteFluo488 peptide substrate)
Format: biochemical
Conditions: recombinant human renin 3 nM, 1 μM substrate, pre-incubated 10 minutes at 37° C., incubation one hour, pH 7.4, 5% DMSO; read-out: IC50 of Exemplified Compounds Against Renin

Compound	IC50 [nM]
Cc1ccccc1-n1c(-c2ccccc2)c(C(=O)N2CCNCC2)n(CCNC(=O)Nc2ccccc2)c1=O [Example 211, 1-(2-(2-Oxo-4-phenyl-5-(piperazine-1-carbonyl)-3-o-tolyl-2,3-dihydro-1H-imidazol-1-yl)ethyl)-3-phenylurea]	100 to 500
O=C(c1c(-c2ccccc2)n(-c2ccccc2)c(=O)n1Cc1ccc(Cl)c(OC(F)(F)F)c1)N1CCNCC1 [Example 87, 1-(4-Chloro-3-(trifluoromethoxy)benzyl)-3,4-diphenyl-5-(piperazine-1-carbonyl)-1H-imidazol-2(3H)-one]	100 to 500
CCOC(=O)NCCCn1c(C(=O)N2CCNCC2)c(-c2ccccc2)n(-c2ccccc2C)c1=O [Example 254, Ethyl 3-(2-oxo-4-phenyl-5-(piperazine-1-carbonyl)-3-o-tolyl-2,3-dihydro-1H-imidazol-1-yl)propylcarbamate]	> 1000
CC(=O)N1CCCC(n2c(-c3ccccc3)c(C(=O)N3CCNC[C@H]3Cc3ccccc3)[nH]c2=O)C1 (stereo partly drawn) [Example 115, 1-(1-Acetylpiperidin-3-yl)-4-((R)-2-benzylpiperazine-1-carbonyl)-5-phenyl-1H-imidazol-2(3H)-one]	500 to 1000
O=C(c1c(-c2ccccc2)n(-c2cccc(N3CCOCC3)c2)c(=O)n1Cc1cccc(OCCOc2ccccc2)c1)N1CCNCC1 [Example 191, 1-(3-Morpholinophenyl)-3-(3-(2-phenoxyethoxy)benzyl)-5-phenyl-4-(piperazine-1-carbonyl)-1H-imidazol-2(3H)-one]	100 to 500
O=C(NC[C@@H]1CNCCN1C(=O)c1[nH]c(=O)n(C2CCCCC2)c1-c1ccccc1)c1ccccc1 [Example 108, (S)—N-((1-(1-Cyclohexyl-2-oxo-5-phenyl-2,3-dihydro-1H-imidazole-4-carbonyl)piperazin-2-yl)methyl)benzamide]	< 100
COc1cccc(NC(=O)NCCCn2c(C(=O)N3CCNCC3)c(-c3ccccc3)n(-c3ccccc3C)c2=O)c1 [Example 226, 1-(3-Methoxyphenyl)-3-(3-(2-oxo-4-phenyl-5-(piperazine-1-carbonyl)-3-o-tolyl-2,3-dihydro-1H-imidazol-1-yl)propyl)urea]	100 to 500
CC(=O)N1CCCC(n2c(-c3ccccc3)c(C(=O)N3CCNCC3)n(Cc3ccccc3)c2=O)C1 (centres unmarked) [Example 93, 1-(1-Acetylpiperidin-3-yl)-3-benzyl-5-phenyl-4-(piperazine-1-carbonyl)-1H-imidazol-2(3H)-one]	> 1000
COc1ccccc1-n1c(-c2ccccc2)c(C(=O)N2CCNCC2)n(CCNC(=O)CC(C)C)c1=O [Example 169, N-(2-(3-(2-Methoxyphenyl)-2-oxo-4-phenyl-5-(piperazine-1-carbonyl)-2,3-dihydro-1H-imidazol-1-yl)ethyl)-3-methylbutanamide]	> 1000
COc1ccc(S(=O)(=O)NCCCn2c(C(=O)N3CCNCC3)c(-c3ccccc3)n(-c3ccccc3C)c2=O)cc1 [Example 222, 4-Methoxy-N-(3-(2-oxo-4-phenyl-5-(piperazine-1-carbonyl)-3-o-tolyl-2,3-dihydro-1H-imidazol-1-yl)propyl)benzenesulfonamide]	100 to 500
C[C@H]1CN(C(=O)c2[nH]c(=O)n(C3CCCCC3)c2-c2ccccc2)CCN1 [Example 39, (S)-1-Cyclohexyl-4-(3-methylpiperazine-1-carbonyl)-5-phenyl-1H-imidazol-2(3H)-one]	> 1000
Cc1ccccc1-n1c(-c2ccccc2)c(C(=O)N2CCNCC2)n(Cc2cccc(OCCOc3ccccc3)c2)c1=O [Example 149, 1-(3-(2-Phenoxyethoxy)benzyl)-4-phenyl-5-(piperazine-1-carbonyl)-3-o-tolyl-1H-imidazol-2(3H)-one]	100 to 500
Cc1ccccc1-n1c(-c2ccccc2)c(C(=O)N2CCNCC2)n(CCCNC(=O)c2cccc(Cl)c2)c1=O [Example 242, 3-Chloro-N-(3-(2-oxo-4-phenyl-5-(piperazine-1-carbonyl)-3-o-tolyl-2,3-dihydro-1H-imidazol-1-yl)propyl)benzamide]	> 1000
O=C(NCCCn1c(C(=O)N2CCNCC2)c(-c2ccccc2)n(-c2cccc(N3CCOCC3)c2)c1=O)c1ccccc1 [Example 174]	> 1000
O=C(c1c(-c2ccccc2)n(-c2ccccc2)c(=O)n1Cc1cccc(-n2cccc2)c1)N1CCNCC1 [Example 88, 1-(3-(1H-Pyrrol-1-yl)benzyl)-3,4-diphenyl-5-(piperazine-1-carbonyl)-1H-imidazol-2(3H)-one]	< 100
Nc1nc(Cn2c(C(=O)N3CCNCC3)c(-c3ccccc3)n(-c3ccccc3)c2=O)cs1 [Example 50, 1-((2-Aminothiazol-4-yl)methyl)-3,4-diphenyl-5-(piperazine-1-carbonyl)-1H-imidazol-2(3H)-one]	500 to 1000
Cn1c(C(=O)N2CCNC[C@H]2Cc2ccccc2)c(-c2ccccc2)n(C2CCCCC2)c1=O [Example 65, (R)-4-(2-Benzylpiperazine-1-carbonyl)-1-cyclohexyl-3-methyl-5-phenyl-1H-imidazol-2(3H)-one]	< 100
